Patent US20250305982A1, “DEVICE AND METHOD FOR THE DETECTION OF BIOMARKERS ASSOCIATED WITH NEURODEGENERATIVE DISEASES” (CONSEJO NACIONAL DE INVESTIGACIONES CIENTÍFICAS Y TÉCNICAS …, priority 2022, published 2025)

Legend:
amyloid aggregates = conditions: González-Lizárraga (2017), Medina (2021); cited from earlier work
fibrillar AS = target: T1, fibrillar AS (Homo sapiens, UniProt P37840); assay: Sandwich immunoassay, Doxy-5 adsorbed on polystyrene microplates; format: binding
T1 construct: made in house; host or cells: E. coli BL21
Protocol: The design is based on an immunoassay with a conventional sandwich system involving the capture of fibrillar species of AS by Doxy-5, followed by detection with two antibodies: an anti-human AS antibody, and an antibody conjugated to a peroxidase. Briefly, the compound of formula (II) is incubated in polystyrene microplates wherein it is adsorbed. After several rinses, to eliminate any non-adsorbed molecules, the system is incubated with a primary anti-human AS rabbit antibody. After rinsing, the system is then incubated with a secondary anti-rabbit antibody conjugated to peroxidase. The conjugated antibody reacts specifically with the primary antibodies which are bound to the immunocaptured AS. […] After incubating, a blue color develops, whose intensity depends on the concentration and the affinity of Doxy-5 to the AS species. The enzymatic reaction is stopped by the addition of sulfuric acid, which produces a color shift towards yellow which is spectrometrically quantifiable at 450 nm.
(§1) The 96-well polystyrene plate was sensitized by incubation overnight a 4° C. and protected from light with 20 μg/mL of the compound of formula (II) in 20 mM sodium acetate pH 5 (50 μL/well). The plate was rinsed with PBST (PBS 10 mM pH 7.4+Tween-80 0.01%) and blocked with 150 μL/well of a 0.1% lysozyme solution in PBS 10 mM pH 7.4 during 1 h at 37° C. After rinsing, 50 μL of the samples with the analytes of interest prepared in 10 mM PBS pH 7.4 were added to each well, and the plate was incubated at 37° C. for 2 h. […] Immediately thereafter, the developed absorbance is measured with a TECAN Spark microplate reader.
The focus of the immunoassay takes advantage of the generation of a colored compound by action of the peroxidase on the substrate (TMB), which is proportional to the concentration of the AS analytes captured by Doxy-5. The absorbance readings at 450 nm were acquired with a TECAN Spark microplate reader. […]

AS fibers = target: T2, AS fibers (Homo sapiens, UniProt P37840); assay: Cyclic voltammetry with gold biosensors modified with Doxy-5; format: binding
T2 construct: made in house; host or cells: E. coli BL21
Protocol: A comparative study for different crosslinking agents for the immobilization of Doxy-5 on gold conductive surfaces was performed. 3-mercaptopropionic acid (MPA), which is able to form self-assembled monolayers (SAM) on the substrate thus facilitating its functionalization, was used. Gold was chosen because it is inert for the molecule of interest. Additionally, the use of other agents such as 1-ethyl-3-(3-dimethylaminopropyl) carbodiimide hydrochloride (EDC) and N-hydroxysuccinimide (NHS), either for generating or activating present moieties, is necessary for the formation of covalent bonds with Doxy-5. Concentrations and incubation times were optimized in each modification stage of the gold surface.
Cyclic voltammetry (CV) measurements were first carried out to characterize each of the immobilization stages on a gold substrate. Said measurements were carried out in a cell with tripolar configuration using a platinum electrode as counter electrode, a silver/silver chloride reference electrode, and the modified gold electrodes as working electrodes. The electrolyte [Fe(CN)6]K4, containing the Fe^3+/Fe^2+ redox pair, was used in every characterization assay. […] CV and EIS measurements were also performed in each immobilization stage using phosphate buffer (PBS) at pH 7.4 (FIG. 1). […]

AS PFF = target: T3, AS PFF (Homo sapiens, UniProt P37840); assay: Comparative binding of immobilized doxycycline hyclate and Doxy-5 to AS aggregates; conditions: AS aggregates 20 ng/ml; polystyrene microplates; FIG. 8
T3 construct: made in house; host or cells: E. coli BL21
Protocol: as §1, with “h. The plate is then rinsed again, and 50 μL of the anti-AS antibody diluted to 1 μg/ml in 10% bovine fetal serum (BFS in 10 mM PBS pH 7.4) were added to each well, after which the plate was incubated 1.5 h. The plate was rinsed once more and incubated at 37° C. during 1 h with 50 μL/well of the antibody conjugated with peroxidase diluted to 1 μg/ml in 10% bovine fetal serum.” for “h.”
Both doxycycline hyclate and Doxy-5 were immobilized on polystyrene microplates and contacted with AS aggregates (PPF) according to the protocol described in Example 4, using a concentration for the AS aggregates of 20 ng/ml. The binding of the AS aggregates to each molecule was determined as described in Example 4 as well.

Tau aggregates (PFF) = assay: Immunoassay, Doxy-5 bound to BSA through glutaraldehyde on polystyrene microplate; format: binding; conditions: Taum 100 ng/ml, PFF 1/10000 dilution; Doxy-5 40 μg/ml; FIG. 6
Protocol: The sensitization of the wells was carried out as follows: first, the binding sites of the microplate were blocked with albumin. Afterwards, compound of formula (II) was covalently linked to albumin by using glutaraldehyde as the linker.
For this purpose, a 96-well polystyrene microplate was incubated with 150 μL/well of 1% bovine serum albumin (BSA) overnight at 4° C. in a humid chamber. Then, after three cycles of washing with PBST, 50 μL/well of glutaraldehyde at different concentrations (0.1%, 0.5% and 1%) were added to the wells and the plate was kept during specified times (either 10 minutes for every concentration, or 5 minutes for 0.5% and 1%) under a hood. Wells were then washed three times with PBS, and 50 μL/well of Doxy-5 (40 μg/ml) were added. The plate was then incubated at 37° C. for 30 minutes, protected from light. Afterwards, the wells were washed again with PBST, and 50 μL/well of 1M TRIS was added as a glutaraldehyde-inactivating agent. The microplate was then incubated at 37° C. for 30 minutes. […] To stop the reaction, 25 μL/well of 2N H2SO4 were added, and the microplate was immediately read on a microplate reader (Tecan Spark, Austria) at the wavelength of 450 nm.

Nc1c(/N=N/c2ccc(-c3ccc(/N=N/c4cc(S(=O)(=O)O)c5ccccc5c4N)cc3)cc2)cc(S(=O)(=O)O)c2ccccc12 [Congo red]
binding to amyloid aggregates structures (amyloid aggregates): strong and specific binding

C[C@H]1c2ccc(N)c(O)c2C(=O)C2=C(O)[C@]3(O)C(=O)C(C(N)=O)=C(O)CC3[C@@H](O)C21 (stereo partly shown) [Doxy-5, 9-amino-4-dedimethylamino doxycycline]
cross-reaction with native (monomeric) AS (fibrillar AS; native AS as negative control): no cross-reaction | AS concentrations showing the best differential reactivity between aggregated and monomeric species (fibrillar AS; wells sensitized with Doxy-5): over 30 ng/mL | affinity towards fibrillar AS (fibrillar AS; wells sensitized with Doxy-5, absorbance 450 nm): nanomolar affinity | electrochemical response of the sensor in the presence of the AS fibers (oxidation peak of voltammogram) (AS fibers; CV, -0.6 V to 0.6 V, 30 mV/seg, Doxy-5 on MPA-SAM gold electrode): clear electrochemical response | interference of the AS monomer in CV response (AS fibers; monomer up to 100 ng/ml, response lower than fibers at 0.1 ng/mL): non-existing interference of the monomer | signal for binding to AS PFF (AS PFF): significantly higher | discrimination between Tau monomer (Taum) and pre-formed fibrils (PFF), signal at 450 nm (Tau aggregates (PFF)): higher signal for PFF compared with Taum and PBS

Cc1ccc2c(c1)sc(-c1ccc(N(C)C)cc1)[n+]2C.[Cl-] [Thioflavin T]
binding to amyloid aggregates structures (amyloid aggregates): strong and specific binding

doxycycline hyclate [reference compound]
signal for binding to AS PFF (AS PFF): positive signal
